From ChEMBL document CHEMBL1201862, “PubChem BioAssay data set” (2004)
The source made the active and inactive calls.

Experiments:
Ion channel NompC = Ion channel NompC (Danio rerio, UniProt Q7T1G6); experiment: Fluorescence counterscreen assay for TRPML3 agonists: dose response cell-based high-throughput screening assay to identify agonists of the transient receptor potential channel N1 (TRPN1). [Related pubchem assays: 1526, 1424, 1448 ]; format: functional
Mucolipin-3 = Mucolipin-3 (Homo sapiens, UniProt Q8TDD5); experiment: Dose response cell-based high-throughput screening assay for agonists of the transient receptor potential channel ML3 (TRPML3). [Related pubchem assays: 1526, 1424, 1448 ]; format: functional
Chain of Mucolipin-3 (Q8TDD5 whole entry, the tested form may be a part): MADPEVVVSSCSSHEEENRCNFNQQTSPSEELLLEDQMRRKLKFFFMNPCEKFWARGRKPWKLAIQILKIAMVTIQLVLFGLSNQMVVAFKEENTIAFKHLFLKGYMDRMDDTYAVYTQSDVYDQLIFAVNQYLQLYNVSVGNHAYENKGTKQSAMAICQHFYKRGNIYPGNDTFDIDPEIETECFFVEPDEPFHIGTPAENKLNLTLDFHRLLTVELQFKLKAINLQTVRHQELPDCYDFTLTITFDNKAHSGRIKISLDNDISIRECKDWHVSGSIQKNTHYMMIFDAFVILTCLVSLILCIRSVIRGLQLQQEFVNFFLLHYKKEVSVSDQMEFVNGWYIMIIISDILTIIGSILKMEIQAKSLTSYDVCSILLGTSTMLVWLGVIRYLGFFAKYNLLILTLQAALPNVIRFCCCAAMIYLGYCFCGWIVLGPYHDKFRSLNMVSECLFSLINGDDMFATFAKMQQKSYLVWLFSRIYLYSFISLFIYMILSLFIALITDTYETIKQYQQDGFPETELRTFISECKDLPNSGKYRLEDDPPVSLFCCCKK

Estrogen receptor = target: T1, Estrogen receptor (Homo sapiens, UniProt P03372); experiment: potentiators of ERα–SRC-1 coactivator binding, dose response, biochemical, TR-FRET, ERα LBD (AID 737)
T1 sequence (P03372 whole entry): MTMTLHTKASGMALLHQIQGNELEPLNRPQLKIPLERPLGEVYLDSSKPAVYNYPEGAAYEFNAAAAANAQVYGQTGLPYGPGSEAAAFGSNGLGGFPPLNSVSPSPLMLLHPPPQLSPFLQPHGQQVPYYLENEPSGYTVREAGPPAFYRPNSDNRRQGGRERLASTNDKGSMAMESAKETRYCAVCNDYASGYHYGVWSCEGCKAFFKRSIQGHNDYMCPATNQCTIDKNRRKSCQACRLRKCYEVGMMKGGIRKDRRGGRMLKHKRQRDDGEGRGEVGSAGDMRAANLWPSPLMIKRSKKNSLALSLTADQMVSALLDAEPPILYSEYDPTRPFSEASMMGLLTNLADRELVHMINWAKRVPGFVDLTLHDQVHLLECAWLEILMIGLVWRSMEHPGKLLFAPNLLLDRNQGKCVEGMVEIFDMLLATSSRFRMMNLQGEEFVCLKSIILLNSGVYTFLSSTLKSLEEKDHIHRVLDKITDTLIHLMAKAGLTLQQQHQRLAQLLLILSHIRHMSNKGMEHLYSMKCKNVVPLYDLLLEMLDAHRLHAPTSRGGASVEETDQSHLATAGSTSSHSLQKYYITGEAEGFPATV

[1] = target: T2, Heat shock factor protein 1 (Mus musculus, UniProt P38532); experiment: inhibition of MG132-induced HSE-luciferase signal, confirmation, cell-based, NIH3T3, luminescence, dose retest (AID 2382); format: functional;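 note: NIH3T3 fibroblasts with HSF1-driven luciferase reporter stressed by proteasome inhibitor MG132; luminescence from HSF1-driven luciferase expression after 8 hours of MG132 stress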
T2 sequence (P38532 whole entry): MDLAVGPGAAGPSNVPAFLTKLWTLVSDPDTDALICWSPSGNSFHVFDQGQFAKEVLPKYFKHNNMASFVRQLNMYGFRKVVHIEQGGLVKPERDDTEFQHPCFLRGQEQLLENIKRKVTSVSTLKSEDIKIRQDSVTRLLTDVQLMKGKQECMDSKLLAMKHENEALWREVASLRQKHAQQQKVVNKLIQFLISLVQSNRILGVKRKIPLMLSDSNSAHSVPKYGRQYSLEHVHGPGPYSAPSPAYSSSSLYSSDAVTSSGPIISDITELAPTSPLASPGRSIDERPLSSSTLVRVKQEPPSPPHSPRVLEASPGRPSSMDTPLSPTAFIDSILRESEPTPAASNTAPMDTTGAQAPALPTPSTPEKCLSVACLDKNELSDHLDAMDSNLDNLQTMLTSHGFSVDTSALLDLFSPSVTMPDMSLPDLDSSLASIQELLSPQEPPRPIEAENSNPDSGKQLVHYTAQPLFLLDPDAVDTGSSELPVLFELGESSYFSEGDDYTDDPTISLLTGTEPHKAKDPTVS

[2] = target: Melanin-concentrating hormone receptor 1 (Homo sapiens, UniProt Q99705); experiment: Fluorescence-based counterscreen for antagonists of the G-protein coupled receptor 7 (GPR7): cell-based high throughput dose response assay to identify antagonists of the melanin-concentrating hormone receptor 1 (MCHR1).; format: functional
Chain of Melanin-concentrating hormone receptor 1 (Q99705 whole entry): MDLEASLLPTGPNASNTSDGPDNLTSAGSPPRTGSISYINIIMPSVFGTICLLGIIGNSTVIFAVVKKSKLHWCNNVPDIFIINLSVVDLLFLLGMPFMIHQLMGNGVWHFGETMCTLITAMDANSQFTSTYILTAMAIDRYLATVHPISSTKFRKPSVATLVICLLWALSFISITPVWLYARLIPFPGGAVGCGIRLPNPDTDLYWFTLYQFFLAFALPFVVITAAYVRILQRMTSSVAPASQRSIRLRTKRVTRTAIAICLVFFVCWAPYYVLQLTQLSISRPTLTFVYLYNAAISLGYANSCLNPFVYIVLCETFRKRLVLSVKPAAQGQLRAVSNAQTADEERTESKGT

[3] = target: T3, Neuropeptide Y receptor type 1 (Homo sapiens, UniProt P25929); experiment: NPY-Y1 receptor antagonist potency, dose response, cell-based (AID 1277); format: functional
T3 sequence (P25929 whole entry): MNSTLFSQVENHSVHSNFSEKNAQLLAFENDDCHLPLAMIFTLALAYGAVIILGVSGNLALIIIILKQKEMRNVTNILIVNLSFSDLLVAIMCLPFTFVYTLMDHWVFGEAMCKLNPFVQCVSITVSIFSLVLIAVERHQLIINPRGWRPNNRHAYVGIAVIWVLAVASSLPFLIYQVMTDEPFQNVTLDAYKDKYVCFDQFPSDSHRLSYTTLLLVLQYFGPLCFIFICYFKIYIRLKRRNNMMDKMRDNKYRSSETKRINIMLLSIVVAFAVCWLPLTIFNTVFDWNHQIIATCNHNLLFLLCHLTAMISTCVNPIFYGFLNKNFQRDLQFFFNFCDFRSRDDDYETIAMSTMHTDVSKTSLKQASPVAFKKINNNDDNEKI

[4] = target: Neuropeptides B/W receptor type 1 (Homo sapiens, UniProt P48145); experiment: Fluorescence-based dose response cell-based high throughput screening assay to identify antagonists of the G-protein coupled receptor 7 (GPR7). [Related pubchem assays: 1952 (Screening assay (GPR7 antagonists).), 1880 (Summary AID.)]; format: functional
Chain of Neuropeptides B/W receptor type 1 (P48145 whole entry): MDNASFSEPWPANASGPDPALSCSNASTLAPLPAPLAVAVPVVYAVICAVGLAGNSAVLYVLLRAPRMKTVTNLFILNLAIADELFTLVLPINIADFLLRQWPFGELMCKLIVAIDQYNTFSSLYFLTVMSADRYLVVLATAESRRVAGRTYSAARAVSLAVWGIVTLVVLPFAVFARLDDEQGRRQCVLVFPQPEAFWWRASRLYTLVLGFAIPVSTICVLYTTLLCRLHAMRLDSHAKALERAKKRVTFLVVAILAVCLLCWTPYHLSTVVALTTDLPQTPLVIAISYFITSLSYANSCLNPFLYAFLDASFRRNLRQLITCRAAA

[5] = target: T4, Neuropeptide Y receptor type 2 (Homo sapiens, UniProt P49146); experiment: NPY-Y2 antagonist potency, selectivity check, dose response, counter-screen for NPY-Y1 antagonist project, cell-based (AID 1278); format: functional
T4 sequence (P49146 whole entry): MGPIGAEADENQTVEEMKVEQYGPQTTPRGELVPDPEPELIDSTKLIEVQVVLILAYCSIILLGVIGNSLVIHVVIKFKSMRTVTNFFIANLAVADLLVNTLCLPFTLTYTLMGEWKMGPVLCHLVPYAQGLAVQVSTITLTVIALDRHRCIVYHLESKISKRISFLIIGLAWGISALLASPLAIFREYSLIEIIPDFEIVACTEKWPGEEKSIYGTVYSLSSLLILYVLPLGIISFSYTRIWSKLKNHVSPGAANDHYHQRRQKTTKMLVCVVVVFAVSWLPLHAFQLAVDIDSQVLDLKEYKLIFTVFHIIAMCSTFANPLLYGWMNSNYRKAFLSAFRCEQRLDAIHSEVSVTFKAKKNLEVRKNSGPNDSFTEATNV

[6] = target: Potassium voltage-gated channel subfamily KQT member 2 (Rattus norvegicus, UniProt O88943, W236L); experiment: KCNQ2 channel potentiators, dose response, mechanism study for KCNQ2 potentiator project, cell-based, automated electrophysiology (AID 2603); format: functional
Chain of Potassium voltage-gated channel subfamily KQT member 2 (O88943 whole entry W236L): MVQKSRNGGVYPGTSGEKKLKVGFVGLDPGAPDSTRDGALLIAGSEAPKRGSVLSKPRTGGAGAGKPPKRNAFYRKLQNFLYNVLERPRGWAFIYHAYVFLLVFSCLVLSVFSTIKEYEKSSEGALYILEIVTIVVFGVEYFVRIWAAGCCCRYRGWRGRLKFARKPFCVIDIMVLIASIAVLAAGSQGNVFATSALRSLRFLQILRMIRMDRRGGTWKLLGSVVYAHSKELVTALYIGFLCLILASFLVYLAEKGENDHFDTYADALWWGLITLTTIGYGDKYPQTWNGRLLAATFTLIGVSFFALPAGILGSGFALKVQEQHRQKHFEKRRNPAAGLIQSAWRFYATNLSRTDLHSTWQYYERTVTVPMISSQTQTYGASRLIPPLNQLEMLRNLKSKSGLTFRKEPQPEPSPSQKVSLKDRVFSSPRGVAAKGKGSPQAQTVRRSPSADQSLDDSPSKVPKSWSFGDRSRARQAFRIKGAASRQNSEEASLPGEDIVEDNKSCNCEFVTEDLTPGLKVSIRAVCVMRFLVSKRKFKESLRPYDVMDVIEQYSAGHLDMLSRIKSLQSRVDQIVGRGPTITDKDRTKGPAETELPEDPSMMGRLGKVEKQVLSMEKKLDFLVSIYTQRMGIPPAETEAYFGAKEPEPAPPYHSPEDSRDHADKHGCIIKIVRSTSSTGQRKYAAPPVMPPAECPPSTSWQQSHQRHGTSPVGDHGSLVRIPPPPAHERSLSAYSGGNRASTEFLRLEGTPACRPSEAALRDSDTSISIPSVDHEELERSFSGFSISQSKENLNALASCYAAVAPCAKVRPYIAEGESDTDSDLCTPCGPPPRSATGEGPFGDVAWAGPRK

[7] = target: T5, Calpain-2 catalytic subunit (Sus scrofa, UniProt P43367); experiment: pig calpain II inhibitor potency, dose response, biochemical, fluorogenic peptide substrate (AID 1420); format: functional
T5 sequence (P43367 whole entry): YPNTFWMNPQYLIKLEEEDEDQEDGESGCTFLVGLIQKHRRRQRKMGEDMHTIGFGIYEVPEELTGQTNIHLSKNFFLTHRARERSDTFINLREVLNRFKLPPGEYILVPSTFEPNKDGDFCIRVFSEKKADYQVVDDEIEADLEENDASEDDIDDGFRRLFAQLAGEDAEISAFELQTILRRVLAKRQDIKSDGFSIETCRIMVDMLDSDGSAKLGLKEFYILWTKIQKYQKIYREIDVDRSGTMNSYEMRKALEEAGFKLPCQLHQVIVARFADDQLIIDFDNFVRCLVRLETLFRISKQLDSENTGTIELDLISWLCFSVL

[8] = inhibitors of Bluetongue virus cytopathic effect, confirmation, arbovirus, BSR cells (AID 1250); format: functional;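 note: protection from viral cytopathic effect measured as cell viability by ATP luminescence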
Aminopeptidase N = target: T6, Aminopeptidase N (Plasmodium falciparum FcB1/Columbia, UniProt O96935); experiment: P. falciparum M1AAP inhibitors, biochemical, fluorogenic H-Leu-NHMec substrate, 1536-well (AID 1445); design: species or system Plasmodium falciparum 3D7, 3D7
T6 sequence (O96935 whole entry): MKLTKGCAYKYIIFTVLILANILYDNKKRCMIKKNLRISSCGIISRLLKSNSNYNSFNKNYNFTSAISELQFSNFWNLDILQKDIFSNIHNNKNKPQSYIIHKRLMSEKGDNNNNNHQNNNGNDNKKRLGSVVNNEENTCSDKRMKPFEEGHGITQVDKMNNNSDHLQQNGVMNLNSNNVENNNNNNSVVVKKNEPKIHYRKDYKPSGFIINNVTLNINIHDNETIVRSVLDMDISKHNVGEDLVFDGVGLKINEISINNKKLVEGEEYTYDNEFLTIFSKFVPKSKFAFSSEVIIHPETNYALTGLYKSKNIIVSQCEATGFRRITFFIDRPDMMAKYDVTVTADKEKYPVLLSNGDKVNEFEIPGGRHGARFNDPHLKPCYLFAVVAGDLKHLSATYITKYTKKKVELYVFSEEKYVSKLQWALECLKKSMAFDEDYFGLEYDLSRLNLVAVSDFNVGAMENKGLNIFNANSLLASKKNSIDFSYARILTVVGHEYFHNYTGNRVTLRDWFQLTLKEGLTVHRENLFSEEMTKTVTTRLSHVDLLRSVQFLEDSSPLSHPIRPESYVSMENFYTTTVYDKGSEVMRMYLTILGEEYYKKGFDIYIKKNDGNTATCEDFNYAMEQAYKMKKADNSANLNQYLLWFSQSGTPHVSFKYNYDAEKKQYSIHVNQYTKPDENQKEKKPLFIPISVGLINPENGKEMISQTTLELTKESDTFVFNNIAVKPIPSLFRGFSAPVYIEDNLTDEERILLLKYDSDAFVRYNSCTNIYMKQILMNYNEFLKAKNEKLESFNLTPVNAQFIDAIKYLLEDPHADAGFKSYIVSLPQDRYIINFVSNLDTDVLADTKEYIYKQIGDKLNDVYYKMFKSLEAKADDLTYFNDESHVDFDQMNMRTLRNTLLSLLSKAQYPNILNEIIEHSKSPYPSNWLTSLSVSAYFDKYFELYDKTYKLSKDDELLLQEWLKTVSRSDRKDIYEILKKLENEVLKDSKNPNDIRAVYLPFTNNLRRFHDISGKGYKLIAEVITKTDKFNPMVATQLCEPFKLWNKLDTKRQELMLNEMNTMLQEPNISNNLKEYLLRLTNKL

[9] = target: 26S proteasome non-ATPase regulatory subunit 14 (Homo sapiens, UniProt O00487); experiment: inhibition of proteasome subunit RPN11 – biochemical, fluorescence polarization, uHTS hits, confirmation (AID 602368); format: functional
Chain of 26S proteasome non-ATPase regulatory subunit 14 (O00487 whole entry): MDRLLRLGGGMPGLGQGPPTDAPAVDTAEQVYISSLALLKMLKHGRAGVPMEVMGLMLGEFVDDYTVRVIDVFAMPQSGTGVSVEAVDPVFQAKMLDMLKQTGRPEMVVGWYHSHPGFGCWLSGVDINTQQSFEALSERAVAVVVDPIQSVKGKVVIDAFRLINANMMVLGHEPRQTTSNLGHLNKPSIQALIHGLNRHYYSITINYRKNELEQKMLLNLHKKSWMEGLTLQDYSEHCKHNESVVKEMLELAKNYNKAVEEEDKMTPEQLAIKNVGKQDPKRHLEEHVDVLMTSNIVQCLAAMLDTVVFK

[10] = target: 72 kDa type IV collagenase (Homo sapiens, UniProt P08253); experiment: Dose Response validation of uHTS RPN11 inhibitor hits using a MMP-2 Fluorescence assay.; format: functional
Chain of 72 kDa type IV collagenase (P08253 whole entry): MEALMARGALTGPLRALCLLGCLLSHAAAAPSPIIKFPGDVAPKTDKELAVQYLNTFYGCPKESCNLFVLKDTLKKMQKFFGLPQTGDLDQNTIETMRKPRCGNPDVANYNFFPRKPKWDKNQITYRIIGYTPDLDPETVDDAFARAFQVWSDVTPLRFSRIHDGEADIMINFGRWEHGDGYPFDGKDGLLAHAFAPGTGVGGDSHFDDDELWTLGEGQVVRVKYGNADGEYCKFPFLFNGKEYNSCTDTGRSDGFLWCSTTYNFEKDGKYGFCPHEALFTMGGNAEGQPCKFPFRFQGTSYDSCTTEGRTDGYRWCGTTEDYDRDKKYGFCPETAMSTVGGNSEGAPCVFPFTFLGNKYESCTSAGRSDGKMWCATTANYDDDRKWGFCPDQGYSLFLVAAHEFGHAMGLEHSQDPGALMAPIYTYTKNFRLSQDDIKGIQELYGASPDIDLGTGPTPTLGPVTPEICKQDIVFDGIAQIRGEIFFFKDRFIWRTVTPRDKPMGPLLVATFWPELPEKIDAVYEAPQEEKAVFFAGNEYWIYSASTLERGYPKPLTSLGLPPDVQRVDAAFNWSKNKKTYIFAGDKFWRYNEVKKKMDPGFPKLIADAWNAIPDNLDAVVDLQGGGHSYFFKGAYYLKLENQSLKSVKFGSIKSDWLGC

Prothrombin = Prothrombin (Bos taurus, UniProt P00735); experiment: thrombin inhibition, dose response, biochemical, fluorescence polarization, uHTS hits (AID 602369); format: functional
[11] = C. albicans growth with fluconazole, confirmation, fluorescence, retest (AID 2467); format: functional, cell-based
NS3 = NS3 (Hepatitis C virus, UniProt A3EZJ3); experiment: PubChem AID 2173; design: species or system Hepacivirus hominis
[12] = NIH-3T3 fibroblast cytotoxicity, dose response, cytotoxicity control, cell-based, fluorescence, Alamar Blue, secondary assay (AID 2327); format: functional;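 note: NIH-3T3 mouse fibroblasts cultured with fluconazole at 8 µg/mL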

Chain of Ion channel NompC (Q7T1G6 whole entry): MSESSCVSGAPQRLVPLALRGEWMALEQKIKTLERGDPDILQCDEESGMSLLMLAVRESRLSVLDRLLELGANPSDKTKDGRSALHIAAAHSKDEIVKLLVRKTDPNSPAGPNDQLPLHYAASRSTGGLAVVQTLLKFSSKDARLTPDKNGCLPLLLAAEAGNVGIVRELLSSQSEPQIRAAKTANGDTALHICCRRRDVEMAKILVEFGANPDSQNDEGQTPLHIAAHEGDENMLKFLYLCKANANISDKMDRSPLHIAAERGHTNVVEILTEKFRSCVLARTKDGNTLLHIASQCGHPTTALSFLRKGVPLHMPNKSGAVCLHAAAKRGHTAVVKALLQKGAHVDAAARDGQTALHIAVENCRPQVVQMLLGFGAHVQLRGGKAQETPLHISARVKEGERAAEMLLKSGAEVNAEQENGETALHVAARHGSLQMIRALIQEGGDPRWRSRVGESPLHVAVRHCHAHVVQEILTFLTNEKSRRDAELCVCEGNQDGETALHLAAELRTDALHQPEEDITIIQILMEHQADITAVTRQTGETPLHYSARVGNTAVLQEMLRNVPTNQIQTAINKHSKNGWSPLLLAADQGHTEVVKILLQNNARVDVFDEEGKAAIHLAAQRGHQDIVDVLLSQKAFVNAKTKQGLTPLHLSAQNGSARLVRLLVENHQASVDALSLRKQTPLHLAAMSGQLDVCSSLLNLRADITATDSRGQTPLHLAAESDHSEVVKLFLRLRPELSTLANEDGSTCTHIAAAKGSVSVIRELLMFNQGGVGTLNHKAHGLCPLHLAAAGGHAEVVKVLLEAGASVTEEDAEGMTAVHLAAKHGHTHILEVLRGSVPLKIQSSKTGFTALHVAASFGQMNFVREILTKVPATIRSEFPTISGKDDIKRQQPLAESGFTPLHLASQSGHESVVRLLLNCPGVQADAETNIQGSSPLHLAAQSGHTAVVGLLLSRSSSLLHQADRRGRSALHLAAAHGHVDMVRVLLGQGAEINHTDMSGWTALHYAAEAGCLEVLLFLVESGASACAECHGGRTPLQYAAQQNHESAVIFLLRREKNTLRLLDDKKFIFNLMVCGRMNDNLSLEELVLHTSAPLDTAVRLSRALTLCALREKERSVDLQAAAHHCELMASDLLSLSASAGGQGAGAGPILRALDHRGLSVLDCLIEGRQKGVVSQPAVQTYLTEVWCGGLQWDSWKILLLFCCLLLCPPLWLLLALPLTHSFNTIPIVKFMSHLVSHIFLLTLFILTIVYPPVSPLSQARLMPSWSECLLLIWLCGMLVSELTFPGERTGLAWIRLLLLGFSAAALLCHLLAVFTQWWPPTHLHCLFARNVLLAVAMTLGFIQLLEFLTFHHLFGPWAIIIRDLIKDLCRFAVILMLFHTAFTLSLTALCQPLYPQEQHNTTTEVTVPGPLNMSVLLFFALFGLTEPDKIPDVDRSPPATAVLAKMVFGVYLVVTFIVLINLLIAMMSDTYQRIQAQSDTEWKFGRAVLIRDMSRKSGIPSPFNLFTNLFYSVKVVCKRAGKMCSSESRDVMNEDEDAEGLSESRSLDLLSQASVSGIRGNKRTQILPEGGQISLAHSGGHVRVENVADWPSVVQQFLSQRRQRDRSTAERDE

## CCOC(=O)C(C)(C)N(Cc1cccc(C)c1)S(=O)(=O)c1cccc([N+](=O)[O-])c1
Ion channel NompC
  EC50: > 29.9 µM (not active)
Mucolipin-3
  EC50: > 29.9 µM (not active)

## COc1nnc(-c2ccc(C(=O)N3C[C@@H]4C[C@H](C3)c3cccc(=O)n3C4)cc2)c2ccccc12
Estrogen receptor
  EC50: 15 µM (active)
[1]
  EC50: > 195 µM (not active)

## O=C(NC1CCCCC1)C(c1ccncc1)N(Cc1ccc2c(c1)OCO2)C(=O)c1cnsn1 (stereo not drawn)
[2]
  IC50: > 43.8 µM (not active)
[3]
  IC50: 32.2 µM (not active)
[4]
  IC50: > 43.8 µM (not active)
[5]
  IC50: > 35 µM (not active)

## CCCCn1c(-c2csc(C(C)C)c2)n[nH]c1=S
[6]
  EC50: 308 µM (active)
[7]
  IC50: > 50 µM (not active)

## Cc1ccc(C(=O)Nc2scc(-c3ccccc3)c2C(=O)O)o1
[8]
  IC50: 34 µM (active)
Aminopeptidase N
  IC50: 68.4 µM (active)

## O=C1NC(=S)N(CCC2=CCCCC2)C(=O)/C1=C/NNC(=O)c1ccccc1
[9]
  IC50: 43.9 µM (active)
[10]
  IC50: > 100 µM (inactive)
Prothrombin
  IC50: 62.2 µM (active)
[11]
  EC50: > 38 µM (not active)
NS3
  IC50: 5.41 µM (active)
[12]
  EC50: > 150 µM (inconclusive)
